This is an account of results in patent publication US9120838B2, “Saccharide conjugates” (Curators of the University of Missouri, priority 2011, dated 2015).

One data set relates to THP-1 macrophages. Description: Cell viability (toxicity) by XTT reduction assay in THP-1 macrophages. Format: cell-based, human. As to conditions: for concentration at which toxic to the cells / cell viability compromised: XTT reduction assay; for toxicity (in words): THP-1 macrophages. Here is the method: Cell viability was monitored using an XTT [2,3-bis(2-methoxy-4-nitro-5-sulfophenyl)-2H-tetrazolium-5-carboxanilide] assay. Macrophage metabolic activity was assessed by probing mitochondrial reduction of XTT (Sigma) which is a measure of viability (or toxicity) in response to the synthetic antagonists. Following 6 h treatment with antagonist compounds and LPS, the macrophages were washed with PBS (Hyclone) and incubated with XTT (0.33 mg/mL) and phenazine methosulfate (PMS) (8.3 μM) (Acros, Morris Plains, N.J.) to a final concentration of 0.33 mg/mL and 8.3 μM respectively for 2 h at 37° C. in 5% CO2. The cellular toxicity was then assessed in a platereader using absorbance of reduced XTT at 467 nm.

The next data set has as its system TNFα production. Description: Agonist activity: secreted TNFα in THP-1 macrophages in the absence of LPS. Format: cell-based, human. As to conditions: for concentration range with agonist activity: FIG. 4 and FIG. 6; for agonist activity in the absence of LPS: tested in the absence of LPS.
Data set [1] concerns LPS-induced TNFα production. Description: LPS antagonism assay: inhibition of LPS-induced TNFα production in THP-1 macrophages (ELISA). The class given is cell-based, human. Particulars: for LPS antagonistic activity: increasing concentrations, 10 ng/mL LPS 6 h; for inhibitory activity against LPS-induced TNFα production: concentration range of 0.1 nM to 10 μM. The method, then: Synthetic compounds in solid form were dissolved in tetrahydrofuran (THF), aliquotted in small volumes, vacuum-centrifuged for 1 h and stored at −80° C. as dry compounds. For cellular treatment, an aliquot was dissolved in an appropriate volume of dimethylsulfoxide (DMSO) to give a concentrated working stock solution. This stock solution was further diluted in DMSO to give the desired concentration range. The final concentration of DMSO in the cell treatments was always maintained at 0.6%. Concentrations of Fmoc-containing compounds were verified by absorbance using an extinction coefficient of 7800 M^−1 cm^−1 at 301 nm.
THP-1 cells were obtained from ATCC (Manassas, Va.) and maintained in RPMI-1640 culture medium (HyClone, Logan, Utah) containing 2 mM L-glutamine, 25 mM HEPES, 1.5 g/L sodium bicarbonate, 10% fetal bovine serum (FBS) (HyClone), 50 units/mL penicillin, 50 μg/mL streptomycin (HyClone), and 50 μM β-mercaptoethanol at 37° C. in 5% CO2. For cellular assay, THP-1 monocytes were centrifuged and resuspended in a fresh growth medium to a cell density of 5×10^5 cells/mL Cells were then seeded in a 48-well plate and differentiated into adherent macrophages by treatment with 10 ng/mL phorbol 12-myristate 13-acetate (PMA) (Sigma) for 24 h at 37° C. in 5% CO2. The non-adherent cells were removed and the adherent cells were washed and replenished with reduced FBS growth medium. For the two wells set aside for calculating percent differentiation, the cells were washed with PBS (Hyclone) prior to removal by 0.25% trypsin-EDTA. Cells in a separate well were removed with 0.25% trypsin and counted under the microscope using a hemocytometer to determine the number of adherent macrophages. For the remaining wells, the cells were pre-incubated with LPS antagonist compounds at different concentrations for 30 min followed by addition of 10 ng/mL ultrapure LPS from E. coli K12 (InvivoGen, San Diego, Calif.) for 6 h at 37° C. in 5% CO2. 0.6% DMSO was used as a control. The cell medium was collected and stored at −20° C. until analyzed by ELISA for secreted TNFα production.

In the next data set the test system is LPS. Particulars: Boons et al.; Shiozaki et al.; Peri et al.; cited from earlier work.
Where [2] appears, read: concentration at which toxicity is seen, human macrophage cells, XTT reduction.
[3] abbreviates: concentration range showing agonist activity, human macrophage cells.
Where [4] appears, read: human macrophage cells (THP-1), 10 ng/mL LPS for 6 h, read-out: TNFα inhibition (IC50).
[5] abbreviates: human macrophage cells (THP-1), 10 ng/mL LPS for 6 h.

Read-outs that look alike come from different tables or passages of the source.

`CCCCCCCCCCCCCC(=O)O[C@H]1[C@@H](OC)O[C@H](COC(=O)CCC(=O)OC[C@H](NC(=O)OCC2c3ccccc3-c3ccccc32)C(=O)O)[C@@H](O)[C@@H]1OC(=O)CCCCCCCCCCCCC` [Compound 19, Methyl 6-O-(4-((S)-2-(9-fluorenylmethoxyearbonyl)amino-2-carboxyethyl)oxy-4-oxobutanoyl)-2,3-di-O-tetradecanoyl-α-D-glucopyranoside]: in the data set with THP-1 macrophages, the “concentration at which toxic to the cells / cell viability compromised” value is at least 10 µM. Moreover, the Toxicity result in the data set on THP-1 macrophages (at 5 μM compound) is “no observable toxicity”. In the data set on THP-1 macrophages (setting [2]), this compound came in with a Toxicity of over 10 µM. The “concentration range with agonist activity” value with TNFα production fell in the range of 10 to 30 µM. This compound also registered an Agonist activity in the data set with TNFα production (setting [3]) of 10 to 30 µM. Moreover, the LPS response blocked in data set [1] (5 μM compound) came out at 80%. Further, in data set [1] (THP-1 macrophages), the “concentration at which inhibition of LPS-induced TNFα begins” value is at least 550 nM and the “LPS antagonistic activity” value is listed as “highly potent LPS antagonistic activity”. Also, in data set [1] (setting [4]), the IC50 amounted to 3000 nM.

As to `CCCCCCCCCCCCCCO[C@H]1[C@@H](OC)O[C@H](C[N+](C)(C)C2CCCC2)[C@@H](O)[C@@H]1OCCCCCCCCCCCCCC` [Compound 4, reference compound], the “toxicity (in words)” value in the data set on THP-1 macrophages (XTT reduction) is listed as “toxic at high concentrations”. The compound further gave a Toxicity in the data set with THP-1 macrophages (setting [2]) of over 30 µM. Also, the “concentration range with agonist activity” value with TNFα production was over 10 µM. In the data set on TNFα production (setting [3]), this compound displayed an Agonist activity of 30 to 100 µM. In data set [1] (LPS-induced TNFα production), the inhibition range is 3 to 10 µM. For the same compound, the IC50 in data set [1] (setting [4]) was determined as 6000 nM. The “antagonistic activity against LPS as reported in the literature” value in the data set with LPS is listed as “provide antagonistic activity”.

For the compound `CO[C@H]1O[C@H](COC(=O)CCC(=O)OC[C@H](N)C(=O)OC(C)(C)C)[C@@H](O)[C@H](OCc2ccccc2)[C@H]1OCc1ccccc1` [Compound 12, Methyl 2,3-di-O-benzyl-6-O-(4-((S)-2-amino-3-(tert-butoxy)-3-oxopropyl)oxy-4-oxobutanoyl)-α-D-glycopyranoside], the Toxicity entry with THP-1 macrophages (setting [2]) is reported as “None observed”. Besides, the Agonist activity entry in the data set with TNFα production (setting [3]) is recorded as “None observed”. For the same compound, the “agonist activity in the absence of LPS” value in the data set with TNFα production was “no agonist activity”. The “LPS antagonistic activity” value in data set [1] (THP-1 macrophages) is given as “do not display LPS antagonistic activity”. Further, the “inhibitory activity against LPS-induced TNFα production” value (“inhibitory activity” below) in data set [1] is recorded as “no inhibitory activity”. Also, the “TNFα inhibition (IC50)” value in data set [1] (setting [5]) is “None observed”.

For `CO[C@H]1OC(COC(=O)CCC(=O)OC[C@H](NC(=O)OCC2c3ccccc3-c3ccccc32)C(=O)O)[C@@H](O)[C@H](OCc2ccccc2)C1OCc1ccccc1` (stereo partly drawn) [Compound 11, Methyl 2,3-di-O-benzyl-6-O-(4-((S)-2-(9-fluorenylmethoxyearbonyl)amino-2-carboxyethyl)oxy-4-oxobutanoyl)-α-D-glycopyranoside], in the data set with THP-1 macrophages (XTT reduction), the “toxicity (in words)” value is “cell toxicity”. Further, the “concentration at which toxic to the cells / cell viability compromised” value with THP-1 macrophages lay in the range of 30 to 100 µM. Moreover, the Toxicity in the data set with THP-1 macrophages (setting [2]) is over 10 µM. Moreover, the Agonist activity result in the data set on TNFα production (setting [3]) was “None observed”. In addition, in data set [1] (THP-1 macrophages), the “concentrations at which LPS-induced TNFα production is significantly inhibited” value is “greater than 10 μM” and the “LPS antagonistic activity” value was “displays LPS antagonistic activity”. Moreover, the IC50 in data set [1] (setting [4]) was 46000 nM.

As for `CO[C@H]1OC(COC(=O)CCC(=O)OC[C@H](NC(=O)OCC2c3ccccc3-c3ccccc32)C(=O)OC(C)(C)C)[C@@H](O)[C@H](OCc2ccccc2)C1OCc1ccccc1` (stereo partly drawn) [Compound 10, Methyl 2,3-di-O-benzyl-6-O-(4-((S)-2-(9-fluorenylmethoxyearbonyl)amino-3-(tert-butoxy)-3-oxopropyl)oxy-4-oxobutanoyl)-α-D-glycopyranoside], the Toxicity result with THP-1 macrophages (setting [2]) is recorded as “None observed”. The Agonist activity result with TNFα production (setting [3]) was “None observed”. The “agonist activity in the absence of LPS” value in the data set on TNFα production is “no agonist activity”. Further, the “LPS antagonistic activity” value in data set [1] (THP-1 macrophages) is recorded as “do not display LPS antagonistic activity”. The “inhibitory activity” value in data set [1] is “no inhibitory activity”. The “TNFα inhibition (IC50)” value in data set [1] (setting [5]) was “None observed”.

`CO[C@H]1O[C@H](COC(=O)CCC(=O)OC[C@H](N)C(=O)O)[C@@H](O)[C@H](OCc2ccccc2)[C@H]1OCc1ccccc1` [Compound 13, Methyl 2,3-di-O-benzyl-6-O-(4-((S)-2-amino-2-carboxyethyl)oxy-4-oxobutanoyl)-α-D-glycopyranoside]: the Toxicity result in the data set on THP-1 macrophages (setting [2]) is reported as “None observed”. For the same compound, in the data set on TNFα production (setting [3]), the Agonist activity entry is reported as “None observed”. The “agonist activity in the absence of LPS” value in the data set on TNFα production is reported as “no agonist activity”. Moreover, in data set [1] (THP-1 macrophages), the “LPS antagonistic activity” value was “do not display LPS antagonistic activity”. In addition, the “inhibitory activity” value in data set [1] is listed as “no inhibitory activity”. In addition, in data set [1] (setting [5]), the “TNFα inhibition (IC50)” value was “None observed”.

`CCCCCCCCCCCCCCO[C@H]1[C@@H](OC)O[C@H](COC(=O)CCC(=O)OC[C@H](NC(=O)OCC2c3ccccc3-c3ccccc32)C(=O)O)[C@@H](O)[C@@H]1OCCCCCCCCCCCCCC` [Compound 24, Methyl 6-O-(4-((S)-2-(9-fluorenylmethoxycarbonyl)amino-2-carboxyethyl)oxy-4-oxobutanoyl)-2,3-di-O-tetradecanyl-α-D-glucopyranoside]: the “toxicity (in words)” value with THP-1 macrophages (XTT reduction) was “without toxicity”. Also, the Toxicity entry in the data set on THP-1 macrophages (setting [2]) is “None observed”; in the data set with THP-1 macrophages (tested 0.2 to 40 μM range), “no toxicity”. Besides, the Agonist activity entry in the data set with TNFα production (setting [3]) was “None observed”; in the data set with TNFα production (tested 0.2 to 40 μM range), “no toxicity or agonist activity”. In data set [1] (Homo sapiens, THP-1, 1 μM compound), this compound registered an inhibition at 1 µM of 70%. For the same compound, the inhibition at 40 µM in data set [1] (Homo sapiens, THP-1, 40 μM compound, read-out: overall inhibition of LPS-induced TNFα production) is 90%. Besides, the IC50 in data set [1] (Macrophage, LPS-induced TNFα production in human macrophages, FIG. 5, read-out: IC50, curve fitting of the inhibition data) worked out at 470 nM; in data set [1] (setting [4]) it was 500 nM. Moreover, the “LPS antagonistic activity” value in data set [1] (THP-1 macrophages) was “significant LPS antagonistic activity”.

By IC50 is commonly meant the concentration needed to halve the response being measured. A word on the inhibition: it is the percentage by which the read-out fell short of the control.
